# Tests used:
# [1] = target: T1, panel of 442 kinases (Homo sapiens, UniProt Q8WTQ7); type: binding; conditions: Compound Concentration 10 µM
# T1 construct: purchased KINOMEscan
# T1 sequence (Q8WTQ7 1-553): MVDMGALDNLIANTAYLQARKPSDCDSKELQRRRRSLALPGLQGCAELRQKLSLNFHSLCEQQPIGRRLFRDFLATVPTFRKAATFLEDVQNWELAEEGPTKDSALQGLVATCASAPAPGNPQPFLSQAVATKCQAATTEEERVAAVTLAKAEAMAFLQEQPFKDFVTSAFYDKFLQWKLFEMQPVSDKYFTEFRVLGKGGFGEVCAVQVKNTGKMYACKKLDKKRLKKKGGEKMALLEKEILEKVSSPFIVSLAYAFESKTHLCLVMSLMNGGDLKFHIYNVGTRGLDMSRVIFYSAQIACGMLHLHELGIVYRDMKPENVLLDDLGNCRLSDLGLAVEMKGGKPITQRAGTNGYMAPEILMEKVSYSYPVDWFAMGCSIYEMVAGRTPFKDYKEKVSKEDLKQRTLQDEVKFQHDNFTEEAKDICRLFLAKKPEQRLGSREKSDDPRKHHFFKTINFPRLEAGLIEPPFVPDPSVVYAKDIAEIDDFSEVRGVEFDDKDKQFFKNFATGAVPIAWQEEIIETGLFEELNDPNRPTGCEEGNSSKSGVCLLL
# Description: (§1) We assessed the selectivity of members of this scaffold using the KINOMEscan methodology across a near comprehensive panel of 442 kinases [[18,27]].
# [2] = target: T2, panel of 442 kinases (Homo sapiens, UniProt Q9UHD2); type: binding; conditions: kinase TBK1; compound concentration 10 µM
# T2 construct: purchased KINOMEscan
# T2 sequence (Q9UHD2 1-729): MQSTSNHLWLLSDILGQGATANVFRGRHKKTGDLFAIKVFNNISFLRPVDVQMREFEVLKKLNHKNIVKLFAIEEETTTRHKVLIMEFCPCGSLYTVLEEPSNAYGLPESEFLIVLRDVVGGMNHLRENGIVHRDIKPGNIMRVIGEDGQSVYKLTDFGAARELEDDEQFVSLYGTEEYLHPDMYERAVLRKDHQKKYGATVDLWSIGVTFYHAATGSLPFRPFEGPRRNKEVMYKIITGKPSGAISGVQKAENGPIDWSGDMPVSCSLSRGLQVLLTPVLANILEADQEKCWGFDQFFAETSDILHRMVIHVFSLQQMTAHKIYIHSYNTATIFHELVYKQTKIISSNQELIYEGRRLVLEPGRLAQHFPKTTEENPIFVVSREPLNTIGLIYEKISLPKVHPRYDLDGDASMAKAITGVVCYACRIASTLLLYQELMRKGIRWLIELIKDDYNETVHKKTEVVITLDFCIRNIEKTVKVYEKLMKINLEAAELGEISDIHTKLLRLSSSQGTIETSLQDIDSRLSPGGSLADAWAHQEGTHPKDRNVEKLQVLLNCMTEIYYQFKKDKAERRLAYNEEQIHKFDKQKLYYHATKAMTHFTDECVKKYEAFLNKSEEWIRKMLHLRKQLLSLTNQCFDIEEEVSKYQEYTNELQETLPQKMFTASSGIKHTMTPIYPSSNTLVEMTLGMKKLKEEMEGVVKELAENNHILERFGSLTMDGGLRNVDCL
# Description: as §1
smiles,measurement,setting,value
CCOc1cc(C(=O)N2CCC(N3CCN(C)CC3)CC2)ccc1Nc1ncc2c(n1)N(C1CCCC1)c1ccccc1C(=O)N2C [Compound 26],KINOMEscan: GRK7,[1],100
same,"% Ctrl, TBK1",[2],100 % Ctrl
"COc1cc(C(=O)N2CCC(N3CCN(C)CC3)CC2)ccc1Nc1ncc2c(n1)N(C1CCCC1)c1ccccc1C(=O)N2C [Compound 25, 11-cyclopentyl-2-((2-methoxy-4-(4-(4-methylpiperazin-1-yl)piperidine-1-carbonyl)phenyl)amino)-5-methyl-5H-benzo[e]pyrimido[5,4-b][1,4]diazepin-6(11H)-one]",KINOMEscan: GRK7,[1],94
same,"% Ctrl, TBK1",[2],100 % Ctrl
COc1cc(C(=O)N2CCC(N3CCN(C)CC3)CC2)ccc1Nc1ncc2c(n1)N1CCc3cccc(c31)C(=O)N2C [Compound 24],"% Ctrl, TBK1",[2],98 % Ctrl
COc1cc(C(=O)N2CCC(N3CCN(C)CC3)CC2)ccc1Nc1ncc2c(n1)N(C)c1ccccc1C(=O)N2C [15 (LRRK2-IN-1)],KINOMEscan: GRK7,[1],100
same,"% Ctrl, TBK1",[2],97 % Ctrl

# Source: publication PMC3914206
